Results as given in ChEMBL document CHEMBL3875179 (Eur J Med Chem, 2016).

How the values were obtained:
[1] = target: Cholinesterase (Equus caballus) (UniProt P81908); experiment: Inhibition of equine serum BChE using butyrylthiocholine iodide as substrate at 10^-4 M preincubated for 15 mins followed by substrate addition and measured for 5 mins by Ellmans method
[2] = target: Cholinesterase (Equus caballus) (UniProt P81908); experiment: Inhibition of equine serum BChE using butyrylthiocholine iodide as substrate at 10^-3 M preincubated for 15 mins followed by substrate addition and measured for 5 mins by Ellmans method
[3] = Selectivity index, ratio of IC50 for mouse NIH/3T3 cells to IC50 for electric eel AChE
[4] = target: Acetylcholinesterase (Electrophorus electricus, UniProt O42275); experiment: Inhibition of electric eel AChE using acetylthiocholine iodide as substrate preincubated for 15 mins followed by substrate addition and measured for 5 mins by Ellmans method
Sequence of Acetylcholinesterase (O42275 whole entry): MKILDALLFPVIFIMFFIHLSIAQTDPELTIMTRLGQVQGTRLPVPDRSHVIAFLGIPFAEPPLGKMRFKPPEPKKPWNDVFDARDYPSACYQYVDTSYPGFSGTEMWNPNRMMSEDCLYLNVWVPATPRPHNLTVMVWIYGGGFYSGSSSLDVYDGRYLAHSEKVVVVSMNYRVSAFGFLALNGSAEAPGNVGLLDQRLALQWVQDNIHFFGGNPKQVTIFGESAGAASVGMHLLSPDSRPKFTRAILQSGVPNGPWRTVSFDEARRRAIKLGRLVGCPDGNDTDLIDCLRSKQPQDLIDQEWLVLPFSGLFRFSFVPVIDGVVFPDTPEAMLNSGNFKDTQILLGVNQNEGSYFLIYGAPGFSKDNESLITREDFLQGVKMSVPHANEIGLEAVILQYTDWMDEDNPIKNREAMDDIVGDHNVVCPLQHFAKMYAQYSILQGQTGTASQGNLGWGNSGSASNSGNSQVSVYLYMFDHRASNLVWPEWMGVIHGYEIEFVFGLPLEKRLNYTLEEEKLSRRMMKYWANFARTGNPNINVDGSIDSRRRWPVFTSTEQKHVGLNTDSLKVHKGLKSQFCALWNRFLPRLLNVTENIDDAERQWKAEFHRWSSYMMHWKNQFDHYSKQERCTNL

[5] = Cytotoxicity against mouse NIH/3T3 cells after 24 hrs by MTT assay; format: toxicity, NIH3T3

Sequence of Cholinesterase (Equus caballus) (P81908 whole entry): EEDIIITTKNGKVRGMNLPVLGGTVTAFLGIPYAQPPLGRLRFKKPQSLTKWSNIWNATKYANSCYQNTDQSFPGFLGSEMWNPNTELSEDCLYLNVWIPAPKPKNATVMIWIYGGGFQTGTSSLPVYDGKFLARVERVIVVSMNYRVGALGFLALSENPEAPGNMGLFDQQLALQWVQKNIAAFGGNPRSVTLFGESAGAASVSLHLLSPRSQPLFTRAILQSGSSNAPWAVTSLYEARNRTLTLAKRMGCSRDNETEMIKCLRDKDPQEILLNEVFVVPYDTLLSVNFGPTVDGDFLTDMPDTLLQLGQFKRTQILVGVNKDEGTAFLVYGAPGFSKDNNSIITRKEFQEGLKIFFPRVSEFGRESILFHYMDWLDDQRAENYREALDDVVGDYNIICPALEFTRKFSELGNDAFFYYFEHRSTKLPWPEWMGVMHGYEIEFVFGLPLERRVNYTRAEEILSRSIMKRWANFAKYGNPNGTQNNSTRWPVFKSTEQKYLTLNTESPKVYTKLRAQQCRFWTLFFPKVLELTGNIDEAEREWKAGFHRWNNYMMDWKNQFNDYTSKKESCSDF

Row | SMILES | inhibition [1] [%] | inhibition [2] [%] | Ratio IC50 [3] | IC50 [4] [µM] | IC50 at 24 h [5] [µM]
1 | COc1ccc2c(c1)C(=O)/C(=C\c1ccc(N3CCN(C)CC3)cc1)C2 | 9.63 | 14.7 |  |  | 
2 | COc1ccc2c(c1)C(=O)/C(=C\c1ccc(N3CCN(c4ccccc4)CC3)cc1)C2 | 1.06 | 1.73 |  |  | 
3 | COc1cc2c(cc1OC)C(=O)/C(=C\c1ccc(N3CCN(CCO)CC3)cc1)C2 | 7.55 | 18.2 |  |  | 
4 | COc1cc2c(cc1OC)C(=O)C(CC1CCN(CC(=O)Nc3nc4ccc(Cl)cc4s3)CC1)C2 (configuration not stated) | 3.09 | 6.21 |  |  | 
5 | CCN(CC)c1ccc(/C=C2/Cc3cc(OC)c(OC)cc3C2=O)cc1 | 1.96 | 3.76 |  |  | 
6 | COc1cc2c(cc1OC)C(=O)/C(=C\c1ccc(N3CCN(c4ccccc4)CC3)cc1)C2 | 1.08 | 3.22 |  |  | 
7 | COc1cc2c(cc1OC)C(=O)/C(=C\c1ccc(N3CCN(C)CC3)cc1)C2 | 8.55 | 19.2 |  |  | 
8 | COc1ccc2c(c1)C/C(=C/c1ccc(N3CCCC3)cc1)C2=O | 1.25 | 3.08 |  |  | 
9 | COc1ccc2c(c1)C(=O)/C(=C\c1ccc(N3CCN(CCCN(C)C)CC3)cc1)C2 | 10.1 | 16.1 | 13 | 6.06 | 78
10 | COc1cc2c(cc1OC)C(=O)C(CC1CCN(CC(=O)Nc3nc4ccccc4s3)CC1)C2 (configuration not stated) | 2.31 | 5.23 |  |  | 
11 | COc1cc2c(cc1OC)C(=O)C(CC1CCN(CC(=O)Nc3ccc(C)cc3)CC1)C2 (configuration not stated) | 3.2 | 5.89 |  |  | 
12 | COc1cc2c(cc1OC)C(=O)C(CC1CCN(CC(=O)Nc3ccccc3)CC1)C2 (configuration not stated) | 2.58 | 5 |  |  | 
13 | COc1ccc2c(c1)C/C(=C/c1ccc(N3CCN(CCO)CC3)cc1)C2=O | 5.91 | 7.63 |  |  | 
14 | COc1cc2c(cc1OC)C(=O)C(CC1CCN(CC(=O)Nc3ccc([N+](=O)[O-])cc3)CC1)C2 (configuration not stated) | 2.69 | 4.88 |  |  | 
15 | COc1cc2c(cc1OC)C(=O)C(CC1CCN(CC(=O)Nc3ccc(Cl)cc3)CC1)C2 (configuration not stated) | 2.77 | 5.39 |  |  | 
16 | COc1ccc2c(c1)C/C(=C/c1ccc(N3CCN(c4ccccc4)CC3)cc1)C2=O | 2.38 | 5.2 |  |  | 
17 | COc1ccc2c(c1)C/C(=C/c1ccc(N3CCN(C)CC3)cc1)C2=O | 7.56 | 12.9 |  |  | 
18 | CCN1CCN(c2ccc(/C=C3/Cc4ccc(OC)cc4C3=O)cc2)CC1 | 4.2 | 5.05 |  |  | 
19 | COc1cc2c(cc1OC)C(=O)/C(=C\c1ccc(N3CCN(CCCN(C)C)CC3)cc1)C2 | 13.9 | 18.7 |  | 4.89 | 78

Row | SMILES | inhibition [1] [%] | inhibition [2] [%] | Ratio IC50 [3] | IC50 [4] [µM] | IC50 at 24 h [5] [µM]
20 | COc1cc2c(cc1OC)C(=O)/C(=C\c1ccc(N3CCN(CCN(C)C)CC3)cc1)C2 | 12.1 | 17 | 50 | 6.38 | 320
21 | COc1cc2c(cc1OC)C(=O)C(CC1CCN(CC(=O)Nc3nc4ccc(F)cc4s3)CC1)C2 (configuration not stated) | 3.1 | 4.89 |  |  | 
22 | COc1cc2c(cc1OC)C(=O)C(CC1CCN(CC(=O)Nc3ccc(F)cc3)CC1)C2 (configuration not stated) | 1.99 | 4.75 |  |  | 
23 | COc1cc2c(cc1OC)C(=O)C(CC1CCN(CC(=O)Nc3nc4ccc([N+](=O)[O-])cc4s3)CC1)C2 (configuration not stated) | 1.13 | 4.18 |  |  | 
24 | COc1cc2c(cc1OC)C(=O)C(CC1CCN(CC(=O)Nc3nc4ccc(C)cc4s3)CC1)C2 (configuration not stated) | 2.08 | 4.29 |  |  | 
25 | COc1ccc2nc(NC(=O)CN3CCC(CC4Cc5cc(OC)c(OC)cc5C4=O)CC3)sc2c1 (configuration not stated) | 3.19 | 5.33 |  |  | 
26 | COc1ccc(NC(=O)CN2CCC(CC3Cc4cc(OC)c(OC)cc4C3=O)CC2)cc1 (configuration not stated) | 1.33 | 4.28 |  |  | 
27 | COc1cc2c(cc1OC)C(=O)C(CC1CCN(CC(=O)Nc3nc4cc(OC)c(OC)cc4s3)CC1)C2 (configuration not stated) | 2.05 | 3.77 |  |  | 
28 | CCN1CCN(c2ccc(/C=C3/Cc4cc(OC)c(OC)cc4C3=O)cc2)CC1 | 8.56 | 16.9 |  |  | 
29 | COc1ccc2c(c1)C(=O)/C(=C\c1ccc(N3CCCC3)cc1)C2 | 3.18 | 5.7 |  |  | 
30 | COc1ccc2c(c1)C/C(=C/c1ccc(N3CCN(CCCN(C)C)CC3)cc1)C2=O | 11.3 | 16 | 27 | 8.54 | 230
31 | COc1ccc2c(c1)C(=O)/C(=C\c1ccc(N3CCN(CCO)CC3)cc1)C2 | 1.25 | 3.45 |  |  | 
32 | CCN(CC)c1ccc(/C=C2/Cc3cc(OC)ccc3C2=O)cc1 | 5.27 | 10.3 |  |  | 
33 | COc1ccc(NC(=O)CN2CCC(CC3Cc4cc(OC)c(OC)cc4C3=O)CC2)cc1OC (configuration not stated) | 1.29 | 5.85 |  |  | 
34 | COc1cc2c(cc1OC)C(=O)/C(=C\c1ccc(N3CCCC3)cc1)C2 | 2.77 | 4.98 |  |  | 
35 | CCN1CCN(c2ccc(/C=C3/Cc4cc(OC)ccc4C3=O)cc2)CC1 | 8.77 | 15.1 |  |  | 
36 | COc1ccc2c(c1)C/C(=C/c1ccc(N3CCN(CCN(C)C)CC3)cc1)C2=O | 9.56 | 15.2 |  |  | 
37 | CCN(CC)c1ccc(/C=C2/Cc3ccc(OC)cc3C2=O)cc1 | 1.65 | 2.8 |  |  | 
38 | COc1ccc2c(c1)C(=O)/C(=C\c1ccc(N3CCN(CCN(C)C)CC3)cc1)C2 | 10.6 | 17.2 |  |  | 
